Holding throughout (experiment): DTP human tumour cell line panel, 48 h
Assay [1] relates to UO-31 renal.
The subject of assay [2] is RXF 393 renal.
Assay [3] relates to SK-MEL-28 melanoma.
Assay [4] relates to OVCAR-3 ovarian.
The test system of assay [5] is OVCAR-4 ovarian.
Assay [6] relates to HCT-15 colon.
The test system of assay [7] is NCI/ADR-RES ovarian.
Assay [8] has as its system MCF7 breast.
The test system of assay [9] is MALME-3M melanoma.
In assay [10] the test system is NCI-H522 lung.
Assay [11] has as its system SR leukemia.

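Grown in 96-well plates, cells were treated for 48 hours with each compound at five concentrations. Insufficient inhibition: endpoint recorded as highest concentration tested. GI50: concentration for 50% inhibition of growth. TGI: total growth inhibition.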

For `CC(C)(CO)CNc1nc(N)nc(Cl)c1N`, the TGI in assay [1], in assay [2], in assay [3], in [4], in assay [5] and in [6] was above 100 µM throughout. The TGI in [7], in assay [8], in assay [9] and in assay [10] was above 100 µM each time.

As to `OCC1OC(n2cnc3cccnc32)CC1O` (configuration not stated), the concentration for total growth inhibition (TGI) in assay [1], in assay [2], in [3], in assay [4], in assay [5] and in [6] was above 100 µM each time. For the same compound, the TGI in assay [7], in assay [8], in assay [11] and in [10] was above 100 µM in each case.

On to `N#CC1=C(N)C(C#N)(C#N)C(c2ccc(F)cc2)C=C1C1CC1` (configuration not stated), for which the concentration for total growth inhibition (TGI) (commonly the concentration giving total growth inhibition) in assay [1] is 27.2 µM; in [2], 18.6 µM; in assay [3], 39.3 µM; in assay [4], 18.1 µM; in assay [6], 22.3 µM; in assay [7], 41.8 µM. For the same compound, the TGI in [8] stood at 17.1 µM; in assay [11], 12.9 µM; in assay [9], 26.8 µM; in assay [10] it was 14.1 µM.

Consider `N#Cc1c(Nc2ccc(F)cc2)[n+]([O-])c2ccc(Cl)cc2[n+]1[O-]`, for which the concentration for total growth inhibition (TGI) was 42.1 µM in [1]; 27.3 µM in assay [2]; above 100 µM in assay [3]; 13.3 µM in [4]; 5.71 µM in assay [5]; 13.3 µM in [6]. The TGI in [7] is 5.37 µM; in [8], 6.1 µM; in assay [9], above 100 µM.

As to `O=C(c1ccc2ccccc2c1)C1S(=O)(=O)OCCOS1(=O)=O`, the total growth inhibition concentration (TGI) in [1], in assay [3], in assay [4], in assay [5], in assay [6] and in assay [7] was above 100 µM throughout. Besides, the concentration for total growth inhibition (TGI) in [8], in assay [11] and in assay [9] was above 100 µM each time.

Turning to `O=S1(=O)NNC(=NCc2ccc(Cl)cc2)c2ccccc21`, the TGI in [1], in [2], in assay [4], in assay [5], in assay [6] and in [9] was above 100 µM in each case.

Turning to `c1ccc(CCN2CCCCCC2)nc1`, the TGI in [1], in [2], in assay [3], in assay [4], in assay [5] and in assay [6] was above 100 µM in each case. Also, the TGI in [7], in assay [8], in assay [9] and in assay [10] was above 100 µM each time.

Consider `Cc1cc(Cc2c(F)c(F)c(Cc3cc(C)no3)c(F)c2F)on1`, for which the TGI in assay [1], in assay [2], in assay [3], in [4], in [5] and in assay [6] was above 100 µM each time. The TGI in [7], in assay [8], in assay [9] and in assay [10] was above 100 µM each time.

For the compound `N#Cc1c(NC(=O)c2ccccc2)sc2c1CCC(=O)C2`, the GI50 (as a rule, the concentration at which growth is held to half of that of the control) is 1.05 µM in assay [1]; 1.17 µM in [2]; 1.04 µM in assay [4]; 0.806 µM in assay [5]; 0.395 µM in assay [6]; 1.33 µM in assay [7]. In addition, the GI50 in assay [8] is 0.64 µM; in [9], 1.65 µM; in [10] it was 0.358 µM. The total growth inhibition concentration (TGI) was 2.24 µM in assay [1]; 3.65 µM in [2]; 2.43 µM in [4]; 2.49 µM in assay [5]; 2.39 µM in assay [6]; 11.8 µM in assay [7]. Moreover, the concentration for total growth inhibition (TGI) in [8] worked out at 7.83 µM; in assay [9], 3.92 µM; in assay [10], 4.66 µM.

For the compound `COC(=O)c1sc(=S)sc1SCc1ccccc1CSc1sc(=S)sc1C(=O)OC`, the concentration for total growth inhibition (TGI) in [1], in [2], in [3], in assay [4], in assay [5] and in [6] was above 100 µM in each case. In addition, the total growth inhibition concentration (TGI) in assay [7], in assay [8], in assay [9] and in [10] was above 100 µM each time.

For `NC(Cc1cc(I)c(O)c(I)c1)C(=O)O` (configuration not stated), the TGI in [1] was above 500 µM; in assay [2] it was 449 µM; in assay [3], above 500 µM; in assay [4], above 500 µM; in assay [5], 332 µM; in [6], above 362 µM. The TGI in assay [7] was above 316 µM; in [8], above 500 µM; in [9] it was above 500 µM; in assay [10], 130 µM.

Take `OC(c1ccc(Cl)cc1)(c1ccc(Cl)cc1)C(O)(c1ccc(Cl)cc1)c1ccc(Cl)cc1`: the figures for the GI50 in assay [1], in assay [6] and in assay [8] were 2.89 µM, 2.93 µM and 3.27 µM, respectively. In addition, the TGI in assay [1], in assay [6] and in [8] was above 100 µM throughout.

Take `CS(=O)(=O)OCCN1CCC2(CC1)SSC1(CCN(CCOS(C)(=O)=O)CC1)S2`: the TGI is above 100 µM in assay [1]; above 100 µM in [3]; 99.7 µM in assay [4]; above 100 µM in assay [5]; above 100 µM in [6]; above 100 µM in assay [7]. For the same compound, the TGI came to 44.9 µM in assay [8], 65.9 µM in assay [11] and 68.1 µM in assay [9].

Turning to `COC(=O)c1ccc(-c2nc(C#N)c(N)o2)cc1`, the concentration for total growth inhibition (TGI) in assay [1], in [2], in assay [3], in [4], in assay [5] and in assay [6] was above 100 µM in each case. Further, the TGI in [8], in assay [11], in assay [9] and in assay [10] was above 100 µM in each case.

In the case of `CC1(C)COC(c2cccc(C3=NC(C)(C)CO3)c2Br)=N1`, the TGI in assay [1], in assay [2], in assay [3], in assay [5], in [6] and in assay [7] was above 100 µM in each case. Also, the total growth inhibition concentration (TGI) in assay [8], in assay [11] and in [9] was above 100 µM each time.

`NC(N)=N/N=C/c1c(-c2ccc([N+](=O)[O-])cc2)nc2sccn12`: the TGI in assay [1] stood at 6.13 µM; in assay [2], 7.55 µM; in assay [3], 3.74 µM; in assay [4] it was 2.89 µM; in assay [5], 2.97 µM; in assay [6] it was 23.7 µM. In addition, the TGI in assay [7] was above 100 µM; in assay [8], 2.62 µM; in assay [10] it was 3.83 µM.

`CCCCCc1cc2c(cc1O)CC[C@@H]1[C@@H]2CC[C@]2(C)[C@@H](O)CC[C@@H]12`: the concentration for total growth inhibition (TGI) in assay [1] amounted to 28.4 µM; in [2], 38.3 µM; in [3] it was 30.7 µM; in [4], 29.4 µM; in [5] it was 42.8 µM; in assay [6], 31.3 µM. The total growth inhibition concentration (TGI) was 37.7 µM in assay [7], 40.2 µM in assay [8], 35.5 µM in assay [9] and 42.7 µM in assay [10].

As for `Cc1c2c3cc(O)ccc3nc-2n(C)c2ccccc12`, the TGI in [1] was found to be 2.72 µM; in [2], 2.86 µM; in assay [3], 5.97 µM; in assay [4], 6.07 µM; in [6], 10.5 µM; in [7] it was 3.4 µM. Besides, the concentration for total growth inhibition (TGI) in assay [8] came to 9.82 µM; in assay [11], 21.3 µM; in [9], 3.44 µM.

Consider `CC(NC(=O)/C(=C/c1ccccc1O)NC(=O)c1ccccc1)C(=O)O` (configuration not stated), for which the concentration for total growth inhibition (TGI) was 34.6 µM in [1]; 57.6 µM in assay [2]; above 100 µM in assay [3]; above 100 µM in [5]; 80.4 µM in [6]; 33.4 µM in assay [7]. The TGI is 21.6 µM in [8], above 100 µM in assay [9] and 50 µM in [10].

Consider `CC(=O)NC1C(CO)O[C@@H]2OC(C)(C)O[C@H]12` (some centres not stated), for which the concentration for total growth inhibition (TGI) in [1], in [3], in assay [4], in assay [5], in [6] and in [7] was above 100 µM in each case. The TGI in assay [8], in assay [9] and in assay [10] was above 100 µM each time.

Regarding `O=c1[nH]c(=O)n(C2OC(COP(=O)(O)OP(=O)(O)O)C(O)C2O)cc1F` (configuration not stated), the TGI was 20.4 µM in assay [1]; 13.8 µM in [2]; above 50 µM in [3]; above 50 µM in assay [4]; above 26.3 µM in assay [5]; above 50 µM in assay [6]. Besides, the results for the TGI in assay [11], in [9] and in assay [10] were above 50 µM, above 50 µM and 34.3 µM, respectively.

In the case of `O=C(O)/C=C(/CC(=O)O)C(=O)O`, the TGI in assay [1] was 33.7 µM; in assay [2] it was 34.8 µM; in assay [3] it was 43.7 µM; in assay [4], 34.5 µM; in assay [5] it was 65.3 µM; in assay [6] it was 54 µM. For the same compound, the total growth inhibition concentration (TGI) is 46.1 µM in assay [7], 39.3 µM in assay [8], 37.3 µM in [9] and 35.7 µM in assay [10].

Turning to `S=C(N/N=C\C=N/NC(=S)N1CCCCCC1)N1CCCCCC1`, the TGI in assay [1] is above 100 µM; in assay [2], 90.9 µM; in assay [3], above 100 µM; in [4] it was above 100 µM; in assay [6], above 100 µM; in [7], above 85.9 µM. For the same compound, the TGI is above 100 µM in [8], above 93.7 µM in assay [9] and above 100 µM in assay [10].

Turning to `COc1cc(C2C3=C(CCC3=O)Oc3cc4c(cc32)OCO4)cc(OC)c1OC` (configuration not stated), the concentration for total growth inhibition (TGI) was above 100 µM in [1]; above 100 µM in [2]; above 100 µM in assay [3]; 0.381 µM in assay [4]; above 100 µM in assay [5]; above 100 µM in assay [6]. In [9], the TGI is above 100 µM.

As to `Clc1nc(-[n+]2ccc(-c3ccncc3)cc2)nc(Nc2ccccc2)c1Cl`, the concentration for total growth inhibition (TGI) in [1], in assay [2], in assay [3], in assay [4], in [5] and in assay [6] was above 100 µM each time. Further, the TGI in [7] is above 100 µM; in assay [8], above 100 µM; in assay [11], 77.4 µM; in assay [9], above 100 µM.

In the case of `COc1ccc(C2(c3ccc(OC)cc3)OC(=O)c3cccc4cccc2c34)cc1`, the TGI in [1] was above 100 µM; in assay [2], above 100 µM; in assay [4] it was above 100 µM; in assay [5], above 100 µM; in assay [6], above 100 µM; in [7], 7.55 µM. In addition, the values for the total growth inhibition concentration (TGI) in [8], in assay [11] and in assay [9] were above 100 µM, 44.8 µM and above 100 µM, respectively.

Turning to `CCC1(CC)C(=O)CC[C@@]2(C)C1=CC[C@H]1[C@@H]3CC[C@H](O)[C@@]3(C)CC[C@@H]12`, the TGI in assay [1] is 34.7 µM; in assay [2], above 100 µM; in assay [3], above 100 µM; in assay [4], 45 µM; in assay [5] it was above 100 µM; in assay [6] it was above 100 µM. The concentration for total growth inhibition (TGI) is above 100 µM in [7], 31.8 µM in [11], above 100 µM in [9] and 78.6 µM in assay [10].

`COc1cc2cc(C(=O)N3CC(CCl)c4c3cc(N)c3ccccc43)[nH]c2cc1OCCN(C)C` (configuration not stated): the TGI is below 0.005 µM in assay [1]; below 0.005 µM in assay [2]; 0.0209 µM in assay [4]; 5.45 µM in [6]; 0.175 µM in assay [7]; 6.52 µM in assay [8].

Turning to `COP(=O)(OC)C(N)CCSC` (configuration not stated), the TGI in [1], in [3], in assay [4], in assay [5], in [6] and in assay [7] was above 100 µM in each case. In addition, the TGI in [8], in [11], in [9] and in assay [10] was above 100 µM throughout.
